This is an account of results in ChEMBL document CHEMBL1144019 (Bioorg Med Chem, 2008).

In brackets after ≈: the same amount, converted by molar mass.

Series [1] deals with Staphylococcus aureus. The series can be described thus: Antibacterial activity against Staphylococcus aureus Smith by standard serial agar dilution method. Format: functional. For orientation: In agar dilution, organisms are placed on agar that contains the substance at set levels.
Series [2] concerns Streptococcus pneumoniae. As to the kind of experiment: Antibacterial activity against penicillin-resistant Streptococcus pneumoniae SR-16675 by standard serial agar dilution method. Format: functional.
Series [3] relates to Escherichia coli. As to the kind of experiment: Antibacterial activity against Escherichia coli SR-21003 by standard serial agar dilution method. Format: functional.
Series [4] relates to Escherichia coli. The series can be described thus: Antibacterial activity against Toho 2 producing Escherichia coli by standard serial agar dilution method. Format: functional.
Series [5] relates to Pseudomonas aeruginosa. The series can be described thus: Antibacterial activity against Pseudomonas aeruginosa SR24 by standard serial agar dilution method. Format: functional.
For series [6], the system named is Pseudomonas aeruginosa. The series can be described thus: Antibacterial activity against AmpC hyperproducing Pseudomonas aeruginosa SR24-12 by standard serial agar dilution method. Format: functional.
Series [7] relates to Pseudomonas aeruginosa. The series can be described thus: Antibacterial activity against Pseudomonas aeruginosa SR-5393 by standard serial agar dilution method. Format: functional.
Series [8] deals with Pseudomonas aeruginosa. As to the kind of experiment: Antibacterial activity against imipenem-resistant Pseudomonas aeruginosa SR-6554 by standard serial agar dilution method. Format: functional.
Series [9] has as its system Haemophilus influenzae. As to the kind of experiment: Antibacterial activity against Haemophilus influenzae ATCC 49766 by standard serial agar dilution method. Format: functional.
Series [10] concerns Haemophilus influenzae. The series can be described thus: Antibacterial activity against beta-lactamase negative ampicillin-resistant Haemophilus influenzae SR-11435 by standard serial agar dilution method. Format: functional.
For series [11], the system named is Moraxella catarrhalis. The series can be described thus: Antibacterial activity against Moraxella catarrhalis ATCC 43617 by standard serial agar dilution method. Format: functional.
Series [12] can be described thus: Stability in presence of AmpC beta-lactamase. Format: ADME.
For series [13], the system named is Enterobacter cloacae. The series can be described thus: Antibacterial activity against Enterobacter cloacae ATCC 13047 by standard serial agar dilution method. Format: functional.
Series [14] concerns Enterobacter cloacae. The series can be described thus: Antibacterial activity against AmpC producing Enterobacter cloacae SR-4321 by standard serial agar dilution method. Format: functional.

For `CO/N=C(\C(=O)N[C@@H]1C(=O)N2C(C(=O)[O-])=C(C[N+]3(C)CCCC3)CS[C@H]12)c1csc(N)n1`, the MIC in series [1] came to 2 µg/mL (≈ 4.16 µM); in [2] it was 2 µg/mL (≈ 4.16 µM); in [3], 0.063 µg/mL (≈ 0.131 µM); in series [4], 4 µg/mL (≈ 8.32 µM); in series [5] it was 0.5 µg/mL (≈ 1.04 µM); in [6] it was 32 µg/mL (≈ 66.6 µM). For the same molecule, the MIC in [7] amounted to 4 µg/mL (≈ 8.32 µM); in [8], 64 µg/mL (≈ 133 µM); in series [9], 0.032 µg/mL (≈ 0.0666 µM); in [10] it was 0.5 µg/mL (≈ 1.04 µM); in [11] it was 0.5 µg/mL (≈ 1.04 µM). Also, the Stability in [12] is recorded as 12.9%.
Consider `COC(=O)NCCn1ccc2c1ccc[n+]2CC1=C(C(=O)[O-])N2C(=O)[C@@H](NC(=O)/C(=N\O[C@@H](C)C(=O)O)c3nc(N)sc3Cl)[C@H]2SC1`, for which the MIC in [1] is 4 µg/mL (≈ 5.66 µM); in series [2], 4 µg/mL (≈ 5.66 µM); in [3] it was 0.5 µg/mL (≈ 0.707 µM); in series [4], 4 µg/mL (≈ 5.66 µM); in series [13], 1 µg/mL (≈ 1.41 µM); in series [14], 4 µg/mL (≈ 5.66 µM). For the same molecule, the MIC in [5] was 2 µg/mL (≈ 2.83 µM); in series [6], 8 µg/mL (≈ 11.3 µM); in series [7] it was 8 µg/mL (≈ 11.3 µM); in series [8], 16 µg/mL (≈ 22.6 µM); in series [9], 0.032 µg/mL (≈ 0.0453 µM); in [10], 0.063 µg/mL (≈ 0.0891 µM). In series [11], this molecule had an MIC of 0.032 µg/mL (≈ 0.0453 µM).
For `C[C@H](O/N=C(\C(=O)N[C@@H]1C(=O)N2C(C(=O)[O-])=C(C[n+]3cccc4c3ccn4C)CS[C@H]12)c1nc(N)sc1Cl)C(=O)O`, the MIC in series [1] came to 1 µg/mL (≈ 1.61 µM); in [2], 2 µg/mL (≈ 3.23 µM); in series [3] it was 0.125 µg/mL (≈ 0.202 µM); in [4], 1 µg/mL (≈ 1.61 µM); in series [13] it was 0.25 µg/mL (≈ 0.403 µM); in series [14], 1 µg/mL (≈ 1.61 µM). Also, the MIC in [5] stood at 0.5 µg/mL (≈ 0.806 µM); in series [6] it was 4 µg/mL (≈ 6.45 µM); in [7], 2 µg/mL (≈ 3.23 µM); in [8], 16 µg/mL (≈ 25.8 µM); in series [9] it was 0.016 µg/mL (≈ 0.0258 µM); in series [10], 0.032 µg/mL (≈ 0.0516 µM). The MIC in [11] was determined as 0.016 µg/mL (≈ 0.0258 µM).
As for `CC(=O)NCCn1ccc2c1ccc[n+]2CC1=C(C(=O)[O-])N2C(=O)[C@@H](NC(=O)/C(=N\O[C@@H](C)C(=O)O)c3nc(N)sc3Cl)[C@H]2SC1`, the MIC came to 4 µg/mL (≈ 5.79 µM) in series [1]; 4 µg/mL (≈ 5.79 µM) in [2]; 0.25 µg/mL (≈ 0.362 µM) in series [3]; 2 µg/mL (≈ 2.89 µM) in [4]; 0.5 µg/mL (≈ 0.723 µM) in [13]; 4 µg/mL (≈ 5.79 µM) in [14]. Moreover, the MIC in [5] worked out at 2 µg/mL (≈ 2.89 µM); in series [6], 8 µg/mL (≈ 11.6 µM); in series [7] it was 4 µg/mL (≈ 5.79 µM); in series [8], 16 µg/mL (≈ 23.1 µM); in series [9] it was 0.032 µg/mL (≈ 0.0463 µM); in [10], 0.125 µg/mL (≈ 0.181 µM). Moreover, the MIC in series [11] was found to be 0.032 µg/mL (≈ 0.0463 µM).
`C[C@H](O/N=C(\C(=O)N[C@@H]1C(=O)N2C(C(=O)[O-])=C(C[n+]3cccc4c3ccn4CCOC(N)=O)CS[C@H]12)c1nc(N)sc1Cl)C(=O)O`: the MIC was 2 µg/mL (≈ 2.89 µM) in [1]; 2 µg/mL (≈ 2.89 µM) in [2]; 0.25 µg/mL (≈ 0.361 µM) in series [3]; 2 µg/mL (≈ 2.89 µM) in series [4]; 0.25 µg/mL (≈ 0.361 µM) in [13]; 2 µg/mL (≈ 2.89 µM) in [14]. Also, the MIC in series [5] amounted to 0.5 µg/mL (≈ 0.721 µM); in [6], 4 µg/mL (≈ 5.77 µM); in [7], 2 µg/mL (≈ 2.89 µM); in series [8] it was 8 µg/mL (≈ 11.5 µM); in series [9] it was 0.032 µg/mL (≈ 0.0462 µM); in series [10], 0.063 µg/mL (≈ 0.0909 µM). For the same molecule, the MIC in series [11] came to 0.032 µg/mL (≈ 0.0462 µM).
Regarding `CNCCNc1cc[n+](CC2=C(C(=O)[O-])N3C(=O)[C@@H](NC(=O)/C(=N\O[C@@H](C)C(=O)O)c4nc(N)sc4Cl)[C@H]3SC2)cc1`, the MIC in series [1] was 4 µg/mL (≈ 6.26 µM); in series [2], 4 µg/mL (≈ 6.26 µM); in series [3], 0.5 µg/mL (≈ 0.782 µM); in series [4], 4 µg/mL (≈ 6.26 µM); in series [13], 0.5 µg/mL (≈ 0.782 µM); in [14] it was 4 µg/mL (≈ 6.26 µM). In addition, the MIC in series [5] was determined as 0.5 µg/mL (≈ 0.782 µM); in series [6], 4 µg/mL (≈ 6.26 µM); in series [7], 2 µg/mL (≈ 3.13 µM); in [8], 16 µg/mL (≈ 25 µM); in series [9], 0.125 µg/mL (≈ 0.196 µM); in series [10] it was 0.25 µg/mL (≈ 0.391 µM). The same molecule registered an MIC in series [11] of 0.032 µg/mL (≈ 0.0501 µM). The Stability in series [12] came out at 80.3%.
